The structures appear in SMILES notation. Converted amounts (≈) assume the structure as drawn.

These results are taken from patent publication US11034650B2, “Compounds useful for treating a Mannheimia haemolytica or Histophilus somni infection” (Intervet Inc., priority 2016, dated 2021).

Holding throughout (type): cell-based
Test [1] concerns Pasteurella multocida PM 6267 (P 2225 (L386), reference strain, mouse infection strain). Briefly: MIC, broth-microdilution (CLSI VET01-A4), strain PM 6267. Particulars: Pasteurella multocida strain PM 6267, broth-microdilution; unit assumed. The protocol:
(§1) For example, representative compounds were tested against ***, Mannheimia haemolytica and Pasteurella multocida, using the conventional broth-dilution assay.
(§2) The Minimum inhibitory concentrations (MIC) of compounds according to the invention for a number of veterinary bacterial pathogens were determined by the broth-microdilution method according to CLSI document VET01-A4.
(§3) Microdilution trays containing a doubling dilution series of the test compound were used for the tests. The MIC results were interpreted according to the CLSI documents VET01-S3. The lowest concentration of compound at which no visible growth (i.e. no turbidity) detected by the unaided eye was recorded as the MIC.

For test [2], the system named is Mannheimia haemolytica MH 13093 (XB0472-6014.1, BRD field isolate). In words: MIC, broth-microdilution (CLSI VET01-A4), strain MH 13093. Particulars: Mannheimia haemolytica strain MH 13093, broth-microdilution; unit assumed. The protocol: as §1, §2, §3
In test [3] the test system is Mannheimia haemolytica MH 12587 (1071, BRD field isolate, macrolide-resistance: erm+, E+). In words: MIC, broth-microdilution (CLSI VET01-A4), strain MH 12587. Particulars: Mannheimia haemolytica strain MH 12587, broth-microdilution; unit assumed. The protocol:
as §1, §2, §3

For test [4], the system named is Mannheimia haemolytica MH 6374 (ATCC 33396, reference strain). Briefly: MIC, broth-microdilution (CLSI VET01-A4), strain MH 6374. Particulars: Mannheimia haemolytica strain MH 6374, broth-microdilution; unit assumed. As for the experimental part: as §1, §2, §3
Test [5] relates to Mannheimia haemolytica MH 13065 (XB0446-6003.9, BRD field isolate). Briefly: MIC, broth-microdilution (CLSI VET01-A4), strain MH 13065. Particulars: Mannheimia haemolytica strain MH 13065, broth-microdilution; unit assumed. As for the experimental part: as §1, §2, §3
In test [6] the test system is Pasteurella multocida PM 10775 (080130003051, BRD field isolate). Briefly: MIC, broth-microdilution (CLSI VET01-A4), strain PM 10775. Particulars: Pasteurella multocida strain PM 10775, broth-microdilution; unit assumed. The protocol:
as §1, §2, §3

Test [7] deals with Mannheimia haemolytica MH 6357 (M7/2, reference strain, cattle infection strain). In words: MIC, broth-microdilution (CLSI VET01-A4), strain MH 6357. Particulars: Mannheimia haemolytica strain MH 6357, broth-microdilution; unit assumed. The protocol: as §1, §2, §3
Test [8] deals with Pasteurella multocida PM 12080 (IV102277-0093, BRD field isolate). In words: MIC, broth-microdilution (CLSI VET01-A4), strain PM 12080. Particulars: Pasteurella multocida strain PM 12080, broth-microdilution; unit assumed. The protocol: as §1, §2, §3
The test system of test [9] is Mannheimia haemolytica MH 10720 (154, BRD field isolate). Briefly: MIC, broth-microdilution (CLSI VET01-A4), strain MH 10720. Particulars: Mannheimia haemolytica strain MH 10720, broth-microdilution; unit assumed. As for the experimental part:
as §1, §2, §3

Consider `CC(C)[C@H](NC(=O)c1ccc(C#Cc2ccc(CNCc3ccccc3)cc2)cc1)C(=O)NO` [Compound 104], for which the MIC PM 6267 in test [1] is not above 0.1 µg/mL. In addition, the MIC MH 13093 in test [2] came to 0.8 µg/mL (≈ 1.76 µM). This compound yielded an MIC MH 12587 in test [3] of 1.6 µg/mL (≈ 3.51 µM). This compound came in with an MIC MH 6374 in [4] of 0.4 µg/mL (≈ 0.878 µM). Further, the MIC MH 13065 in test [5] worked out at 0.4 µg/mL (≈ 0.878 µM). The MIC PM 10775 in test [6] is not above 0.1 µg/mL. Also, the MIC MH 6357 in test [7] was found to be 0.4 µg/mL (≈ 0.878 µM). Also, in [8], the MIC PM 12080 stood at 0.4 µg/mL (≈ 0.878 µM). The compound also returned an MIC MH 10720 in test [9] not above 0.1 µg/mL.

The compound `CC(C)[C@H](NC(=O)c1ccc(C#Cc2ccc(CN(C)Cc3ccccc3)cc2)cc1)C(=O)NO` [Compound 105] returned an MIC PM 6267 in test [1] of 0.2 µg/mL (≈ 0.426 µM). The same compound showed an MIC MH 13093 in [2] of 3.1 µg/mL (≈ 6.6 µM). In test [3], this compound yielded an MIC MH 12587 of 6.3 µg/mL (≈ 13.4 µM). The MIC MH 6374 in test [4] stood at 3.1 µg/mL (≈ 6.6 µM). This compound also gave an MIC MH 13065 in test [5] of 3.1 µg/mL (≈ 6.6 µM). In addition, the MIC PM 10775 in test [6] is not above 0.1 µg/mL. Besides, the MIC MH 6357 in test [7] amounted to 6.3 µg/mL (≈ 13.4 µM). The compound also gave an MIC PM 12080 in test [8] of 0.8 µg/mL (≈ 1.7 µM). Further, in test [9], the MIC MH 10720 turned out to be 0.8 µg/mL (≈ 1.7 µM).

Compound `CC(C)[C@H](NC(=O)c1ccc(C#Cc2ccc(CNCc3ccc(Cl)cc3)cc2)cc1)C(=O)NO` [Compound 106] yielded an MIC PM 6267 in test [1] of 0.2 µg/mL (≈ 0.408 µM). Further, the MIC MH 13093 in test [2] turned out to be 1.6 µg/mL (≈ 3.27 µM). The compound also yielded an MIC MH 12587 in test [3] of 1.6 µg/mL (≈ 3.27 µM). In test [4], the MIC MH 6374 stood at 0.8 µg/mL (≈ 1.63 µM). Moreover, the MIC MH 13065 in test [5] turned out to be 0.8 µg/mL (≈ 1.63 µM). Also, the MIC PM 10775 in test [6] is not above 0.1 µg/mL. The compound further gave an MIC MH 6357 in test [7] of 0.8 µg/mL (≈ 1.63 µM). Moreover, the MIC PM 12080 in test [8] stood at 0.8 µg/mL (≈ 1.63 µM). The compound also came in with an MIC MH 10720 in test [9] of 0.2 µg/mL (≈ 0.408 µM).

Turning to `COc1ccc(CNCc2ccc(C#Cc3ccc(C(=O)N[C@H](C(=O)NO)C(C)C)cc3)cc2)cc1` [Compound 107], the MIC PM 6267 in test [1] came out at 0.2 µg/mL (≈ 0.412 µM). Besides, in [2], the MIC MH 13093 worked out at 0.8 µg/mL (≈ 1.65 µM). In test [3], the MIC MH 12587 was 3.1 µg/mL (≈ 6.38 µM). The same compound returned an MIC MH 6374 in [4] of 0.8 µg/mL (≈ 1.65 µM). Besides, the MIC MH 13065 in test [5] turned out to be 0.8 µg/mL (≈ 1.65 µM). The compound also registered an MIC PM 10775 in test [6] not above 0.1 µg/mL. The compound also yielded an MIC MH 6357 in [7] of 3.1 µg/mL (≈ 6.38 µM). This compound came in with an MIC PM 12080 in test [8] of 0.4 µg/mL (≈ 0.824 µM). This compound also showed an MIC MH 10720 in test [9] of 0.4 µg/mL (≈ 0.824 µM).

With `CC(C)[C@H](NC(=O)c1ccc(C#Cc2ccc(CNCc3ccc(N(C)C)cc3)cc2)cc1)C(=O)NO` [Compound 108], the MIC PM 6267 in [1] was 0.4 µg/mL (≈ 0.802 µM). The same compound displayed an MIC MH 13093 in test [2] of 3.1 µg/mL (≈ 6.22 µM). The MIC MH 12587 in [3] is 3.1 µg/mL (≈ 6.22 µM). The same compound came in with an MIC MH 6374 in [4] of 1.6 µg/mL (≈ 3.21 µM). This compound also came in with an MIC MH 13065 in test [5] of 1.6 µg/mL (≈ 3.21 µM). Besides, the MIC PM 10775 in [6] was not above 0.1 µg/mL. This compound returned an MIC MH 6357 in test [7] of 3.1 µg/mL (≈ 6.22 µM). This compound had an MIC PM 12080 in test [8] of 1.6 µg/mL (≈ 3.21 µM). This compound showed an MIC MH 10720 in test [9] of 1.6 µg/mL (≈ 3.21 µM).

In test [1], `CC(C)[C@H](NC(=O)c1ccc(C#Cc2ccc(CNCc3ccncc3)cc2)cc1)C(=O)NO` [Compound 110] gave an MIC PM 6267 not above 0.1 µg/mL. The MIC MH 13093 in test [2] worked out at 0.4 µg/mL (≈ 0.876 µM). The MIC MH 12587 in test [3] turned out to be 0.8 µg/mL (≈ 1.75 µM). In test [4], this compound showed an MIC MH 6374 of 0.4 µg/mL (≈ 0.876 µM). The compound also yielded an MIC MH 13065 in test [5] of 0.4 µg/mL (≈ 0.876 µM). In test [6], this compound displayed an MIC PM 10775 not above 0.1 µg/mL. Also, in [7], the MIC MH 6357 was 1.6 µg/mL (≈ 3.5 µM). This compound registered an MIC PM 12080 in [8] of 0.2 µg/mL (≈ 0.438 µM). The same compound gave an MIC MH 10720 in test [9] not above 0.1 µg/mL.

Regarding `Cc1ccc(CNCc2ccc(C#Cc3ccc(C(=O)N[C@H](C(=O)NO)C(C)C)cc3)cc2)cc1C` [Compound 111], in test [1], the MIC PM 6267 amounted to 0.8 µg/mL (≈ 1.65 µM). This compound came in with an MIC MH 13093 in test [2] of 3.1 µg/mL (≈ 6.41 µM). The MIC MH 12587 in [3] was 12.5 µg/mL (≈ 25.8 µM). The MIC MH 6374 in test [4] amounted to 3.1 µg/mL (≈ 6.41 µM). For the same compound, in test [5], the MIC MH 13065 was found to be 3.1 µg/mL (≈ 6.41 µM). This compound came in with an MIC PM 10775 in test [6] of 0.4 µg/mL (≈ 0.827 µM). In test [7], this compound had an MIC MH 6357 of 3.1 µg/mL (≈ 6.41 µM). The MIC PM 12080 in test [8] turned out to be 1.6 µg/mL (≈ 3.31 µM). In [9], this compound displayed an MIC MH 10720 of 0.8 µg/mL (≈ 1.65 µM).

Compound `CC[C@H](C)[C@H](NC(=O)c1ccc(C#Cc2ccc(CNC3CC3)cc2)cc1)C(=O)NO` [Compound 112] came in with an MIC PM 6267 in test [1] not above 0.1 µg/mL. Moreover, the MIC MH 13093 in test [2] came out at 0.4 µg/mL (≈ 0.953 µM). The MIC MH 12587 in [3] was determined as 0.8 µg/mL (≈ 1.91 µM). For the same compound, in test [4], the MIC MH 6374 came out at 0.4 µg/mL (≈ 0.953 µM). Besides, the MIC MH 13065 in test [5] was 0.4 µg/mL (≈ 0.953 µM). The MIC PM 10775 in test [6] is not above 0.1 µg/mL. This compound registered an MIC MH 6357 in test [7] of 1.6 µg/mL (≈ 3.81 µM). Besides, the MIC PM 12080 in test [8] is 0.2 µg/mL (≈ 0.477 µM). For the same compound, the MIC MH 10720 in test [9] is not above 0.1 µg/mL.

For the compound `C=CCNCc1ccc(C#Cc2ccc(C(=O)N[C@H](C(=O)NO)[C@@H](C)CC)cc2)cc1` [Compound 113], the MIC PM 6267 in test [1] came to 0.4 µg/mL (≈ 0.953 µM). The MIC MH 13093 in test [2] came to 3.1 µg/mL (≈ 7.39 µM). The compound further came in with an MIC MH 12587 in test [3] of 3.1 µg/mL (≈ 7.39 µM). The MIC MH 6374 in test [4] was determined as 0.8 µg/mL (≈ 1.91 µM). Further, the MIC MH 13065 in [5] was 1.6 µg/mL (≈ 3.81 µM). This compound also had an MIC PM 10775 in test [6] not above 0.1 µg/mL. In test [7], the MIC MH 6357 is 3.1 µg/mL (≈ 7.39 µM). The MIC PM 12080 in [8] was 0.8 µg/mL (≈ 1.91 µM). Also, the MIC MH 10720 in test [9] is 0.4 µg/mL (≈ 0.953 µM).
